The compounds below were run against human GPR17 short isoform (Homo sapiens, UniProt Q13304) (assay: GPR17 cAMP assay (hGPR17 cAMP, antagonist mode)). Settings: CHO-K1 cells stably expressing human GPR17 short isoform; EC80 of agonist MDL29,951; forskolin 15 μM; TR-FRET cAMP.
Format: cell-based
Source text: Changes in intracellular cyclic adenosine monophosphate (cAMP) levels were quantified using the Nano-TRF Detection Assay kit (Roche Diagnostics, Cat. No. 05214386001). This assay allows for direct cAMP quantification in a homogeneous solution. cAMP is detected based on time-resolved fluorescence energy transfer (TR-FRET) and competitive binding of ruthenylated cAMP and endogenous cAMP to an anti-cAMP monoclonal antibody labeled with AlexaFluor-700. The Ruthenium complex serves as the FRET donor and transfers energy to AlexaFluor-700. The FRET signal is inversely proportional to the cAMP concentration.
CHO-GPR17S cells were detached with Accutase and resuspended in assay buffer consisting of Hank's Balanced Salt Solution (HBSS), 10 mM HEPES (4-(2-hydroxyethyl) piperazine-1-ethanesulfonic acid solution) and 0.1% bovine serum albumin (pH 7.4). The cells were seeded in black 384-well plates (Corning) at a density of 10,000 cells/20 μl assay buffer until the addition of compounds.
Test antagonist compounds were serially diluted in dimethyl sulfoxide (DMSO) and spotted in 384-well plates. The compounds were then diluted in HBSS buffer supplemented with an EC80 concentration of MDL29,951 (3-(2-Carboxy-4,6-dichloroindol-3-yl) propionic acid) (GPR17 agonist) plus 3-Isobutyl-1-methylxanthine (IBMX) (0.5 mM final concentration) and added to the cells at room temperature. Forskolin (15 μM final concentration) was added 5 minutes after the test compounds and the cells were incubated at room temperature for 30 minutes. The assay was stopped by adding cAMP detection mix (containing detergents for cell lysis) for 90 minutes at room temperature.
Cellular cAMP was measured using a Paradigm reader (Molecular Devices). The raw data was used to calculate the FRET signal based on the assay's P-factor as per cAMP kit instructions. The data was normalized to the maximal activity of a reference antagonist and dose response curves were fitted to the percent activity of the test compounds using a sigmoidal dose response model (Genedata Screener).

human GPR17 short isoform, sequence (Q13304 29-367): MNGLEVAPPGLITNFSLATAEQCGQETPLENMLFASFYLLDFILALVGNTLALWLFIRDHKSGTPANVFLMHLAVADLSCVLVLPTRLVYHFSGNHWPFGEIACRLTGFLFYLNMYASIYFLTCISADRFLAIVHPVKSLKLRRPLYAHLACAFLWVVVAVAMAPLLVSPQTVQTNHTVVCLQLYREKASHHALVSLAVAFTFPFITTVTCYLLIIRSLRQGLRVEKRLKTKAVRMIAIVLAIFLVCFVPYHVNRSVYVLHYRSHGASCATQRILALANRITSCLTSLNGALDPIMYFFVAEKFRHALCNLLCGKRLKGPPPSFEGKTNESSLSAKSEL

SMILES | IC50 [µM]
[2H]C([2H])(c1cnc(NS(=O)(=O)c2c[nH]c3cc(F)ccc23)nc1OC)C(F)F [Example 4, N-[5-(1,1-dideuterio-2,2-difluoro-ethyl)-4-methoxy-pyrimidin-2-yl]-6-fluoro-1H-indole-3-sulfonamide] | 0.094
[2H]C([2H])(CF)Oc1cnc(NS(=O)(=O)c2c[nH]c3c(F)c(Cl)ccc23)nc1OC [Example 6, 6-chloro-N-[5-(1,1-dideuterio-2-fluoro-ethoxy)-4-methoxy-pyrimidin-2-yl]-7-fluoro-1H-indole-3-sulfonamide] | 0.105
[2H]C([2H])(c1cnc(NS(=O)(=O)c2c[nH]c3c(F)c(Cl)ccc23)nc1OC)C(F)F [Example 5, 6-chloro-N-[5-(1,1-dideuterio-2,2-difluoro-ethyl)-4-methoxy-pyrimidin-2-yl]-7-fluoro-1H-indole-3-sulfonamide] | 0.107
[2H]C([2H])(c1cnc(NS(=O)(=O)c2c[nH]c3c(F)c(Br)ccc23)nc1OC)C(F)F [Example 8, 6-bromo-N-[5-(1,1-dideuterio-2,2-difluoro-ethyl)-4-methoxy-pyrimidin-2-yl]-7-fluoro-1H-indole-3-sulfonamide] | 0.137
[2H]C([2H])(F)C([2H])([2H])Oc1cnc(NS(=O)(=O)c2c[nH]c3c(F)c(Cl)ccc23)nc1OC [Example 1, 6-chloro-7-fluoro-N-[4-methoxy-5-(1,1,2,2-tetradeuterio-2-fluoro-ethoxy)pyrimidin-2-yl]-1H-indole-3-sulfonamide] | 0.085

Compounds with a lower IC50, results first:

IC50 [µM] | SMILES
0.037 | [2H]C([2H])(c1c(OC)nc(NS(=O)(=O)c2c[nH]c3nc(Cl)ccc23)nc1OC)C(F)F [Example 11, 6-chloro-N-[5-(1,1-dideuterio-2,2-difluoro-ethyl)-4,6-dimethoxy-pyrimidin-2-yl]-1H-pyrrolo[2,3-b]pyridine-3-sulfanomide]
0.057 | [2H]C([2H])(c1c(OC)nc(NS(=O)(=O)c2c[nH]c3nc(C)ccc23)nc1OC)C(F)F [Example 12, N-[5-(1,1-dideuterio-2,2-difluoro-ethyl)-4,6-dimethoxy-pyrimidin-2-yl]-6-methyl-1H-pyrrolo [2,3-b]pyridine-3-sulfonamide]
0.063 | [2H]C([2H])(F)C([2H])([2H])Oc1c(OC)nc(NS(=O)(=O)c2c[nH]c3nc(Cl)ccc23)nc1OC [Example 3, 6-chloro-N-[4,6-dimethoxy-5-(1,1,2,2-tetradeuterio-2-fluoro-ethoxy)pyrimidin-2-yl]-1H-pyrrolo[2,3-b]pyridine-3-sulfonamide]
0.055 | [2H]C([2H])(c1cnc(NS(=O)(=O)c2c[nH]c3cc(Cl)ccc23)nc1OC)C(F)F [Example 7, 6-chloro-N-[5-(1,1-dideuterio-2,2-difluoro-ethyl)-4-methoxy-pyrimidin-2-yl]-1H-indole-sulfonamide]
0.042 | [2H]C([2H])(F)C([2H])([2H])Oc1c(OC)nc(NS(=O)(=O)c2c[nH]c3nc(Br)ccc23)nc1OC [Example 2, 6-bromo-N-[4,6-dimethoxy-5-(1,1,2,2-tetradeuterio-2-fluoro-ethoxy)pyrimidin-2-yl]-1H-pyrrolo [2,3-b]pyridine-3-sulfonamide]
0.023 | [2H]C([2H])(c1c(OC)nc(NS(=O)(=O)c2c[nH]c3nc(Br)ccc23)nc1OC)C(F)F [Example 9, 6-bromo-N-[5-(1,1-dideuterio-2,2-difluoro-ethyl)-4,6-dimethoxy-pyrimidin-2-yl]-1H-pyrrolo[2,3-b]pyridine-3-sulfonamide]
0.081 | [2H]C([2H])(Oc1c(OC)nc(NS(=O)(=O)c2c[nH]c3nc(Br)ccc23)nc1OC)C(F)F [Example 10, 6-bromo-N-[5-(1,1-dideuterio-2,2-difluoro-ethoxy)-4,6-dimethoxy-pyrimidin-2-yl]-1H-pyrrolo[2,3-b]pyridine-3-sulfonamide]

From patent US20250188061A1, “NOVEL DEUTERATED PYRIMIDIN-2-YL SULFONAMIDE DERIVATIVES” (Hoffmann-La Roche Inc., priority 2022, published 2025)
